Data as given in PubChem BioAssay AID1745844 (Carcinogenic Potency Database (CPDB), 2022).

Test system: rodent lifetime carcinogenesis bioassay, tumor incidence TD50
Assay: chronic cancer bioassays in animals – CPDB, compiled studies (AID 1745844)

SMILES: Cc1cnc2ccc3c(nc(N)n3C)c2n1
- TD50 (mouse, strain CDF1, females, in feed, site: all sites, lesion: lymphoma and leukemia, combined, dosed 84 weeks, study length 84 weeks): 6820 mg/kg/day
- TD50 (mouse, strain CDF1, females, in feed, site: liver, lesion: hepatocellular adenoma, dosed 84 weeks, study length 84 weeks): 14.2 mg/kg/day
- TD50 (mouse, strain CDF1, females, in feed, site: liver, lesion: hepatocellular carcinoma, dosed 84 weeks, study length 84 weeks): 27.8 mg/kg/day
- TD50 (mouse, strain CDF1, females, in feed, site: liver, lesion: several types, types named in the paper, dosed 84 weeks, study length 84 weeks): 14.2 mg/kg/day
- TD50 (mouse, strain CDF1, females, in feed, site: lung, lesion: adenocarcinoma, dosed 84 weeks, study length 84 weeks): 257 mg/kg/day
- TD50 (mouse, strain CDF1, females, in feed, site: lung, lesion: adenoma, dosed 84 weeks, study length 84 weeks): 143 mg/kg/day
- TD50 (mouse, strain CDF1, females, in feed, site: lung, lesion: several types, types named in the paper, dosed 84 weeks, study length 84 weeks): 77.2 mg/kg/day
- TD50 (mouse, strain CDF1, males, in feed, site: all sites, lesion: lymphoma and leukemia, combined, dosed 84 weeks, study length 84 weeks): 109 mg/kg/day
- TD50 (mouse, strain CDF1, males, in feed, site: liver, lesion: hepatocellular adenoma, dosed 84 weeks, study length 84 weeks): 86.9 mg/kg/day
- TD50 (mouse, strain CDF1, males, in feed, site: liver, lesion: hepatocellular carcinoma, dosed 84 weeks, study length 84 weeks): 102 mg/kg/day
- TD50 (mouse, strain CDF1, males, in feed, site: liver, lesion: several types, types named in the paper, dosed 84 weeks, study length 84 weeks): 83.8 mg/kg/day
- TD50 (mouse, strain CDF1, males, in feed, site: lung, lesion: adenocarcinoma, dosed 84 weeks, study length 84 weeks): 236 mg/kg/day
- TD50 (mouse, strain CDF1, males, in feed, site: lung, lesion: adenoma, dosed 84 weeks, study length 84 weeks): 262 mg/kg/day
- TD50 (mouse, strain CDF1, males, in feed, site: lung, lesion: several types, types named in the paper, dosed 84 weeks, study length 84 weeks): 134 mg/kg/day
- TD50 (rat, strain F344/DuCrj, females, in feed, site: Zymbal's gland, lesion: squamous-cell carcinoma, dosed 61 weeks, study length 61 weeks): 6.31 mg/kg/day
- TD50 (rat, strain F344/DuCrj, females, in feed, site: clitoral gland, lesion: squamous-cell carcinoma, dosed 61 weeks, study length 61 weeks): 4.72 mg/kg/day
- TD50 (rat, strain F344/DuCrj, females, in feed, site: liver, lesion: neoplastic nodule, dosed 61 weeks, study length 61 weeks): 6.31 mg/kg/day
- TD50 (rat, strain F344/DuCrj, females, in feed, site: skin, lesion: squamous-cell carcinoma, dosed 61 weeks, study length 61 weeks): 87.2 mg/kg/day
- TD50 (rat, strain F344/DuCrj, males, in feed, site: Zymbal's gland, lesion: sebaceous adenoma, dosed 56 weeks, study length 56 weeks): 38.9 mg/kg/day
- TD50 (rat, strain F344/DuCrj, males, in feed, site: Zymbal's gland, lesion: several types, types named in the paper, dosed 56 weeks, study length 56 weeks): 4.91 mg/kg/day
- TD50 (rat, strain F344/DuCrj, males, in feed, site: Zymbal's gland, lesion: several types, types named in the paper, dosed 61 weeks, study length 61 weeks): 2.72 mg/kg/day
- TD50 (rat, strain F344/DuCrj, males, in feed, site: Zymbal's gland, lesion: squamous-cell carcinoma, dosed 56 weeks, study length 56 weeks): 8.6 mg/kg/day
- TD50 (rat, strain F344/DuCrj, males, in feed, site: Zymbal's gland, lesion: squamous-cell carcinoma, dosed 61 weeks, study length 61 weeks): 3.59 mg/kg/day
- TD50 (rat, strain F344/DuCrj, males, in feed, site: Zymbal's gland, lesion: squamous-cell papilloma, dosed 56 weeks, study length 56 weeks): 29.1 mg/kg/day
- TD50 (rat, strain F344/DuCrj, males, in feed, site: Zymbal's gland, lesion: squamous-cell papilloma, dosed 61 weeks, study length 61 weeks): 35.8 mg/kg/day
- TD50 (rat, strain F344/DuCrj, males, in feed, site: liver, lesion: hepatocellular adenoma, dosed 56 weeks, study length 56 weeks): 3.15 mg/kg/day
- TD50 (rat, strain F344/DuCrj, males, in feed, site: liver, lesion: hepatocellular carcinoma, dosed 56 weeks, study length 56 weeks): 2.91 mg/kg/day
- TD50 (rat, strain F344/DuCrj, males, in feed, site: liver, lesion: hepatocellular carcinoma, dosed 61 weeks, study length 61 weeks): 1.26 mg/kg/day
- TD50 (rat, strain F344/DuCrj, males, in feed, site: liver, lesion: neoplastic nodule, dosed 61 weeks, study length 61 weeks): 73.5 mg/kg/day
- TD50 (rat, strain F344/DuCrj, males, in feed, site: liver, lesion: several types, types named in the paper, dosed 56 weeks, study length 56 weeks): 1.24 mg/kg/day
- carcinogen call (rat, strain F344/DuCrj, males, in feed, site: liver, lesion: several types, types named in the paper, dosed 61 weeks, study length 61 weeks): positive
- TD50 (rat, strain F344/DuCrj, males, in feed, site: skin, lesion: basal-cell carcinoma, dosed 61 weeks, study length 61 weeks): 73.5 mg/kg/day
- TD50 (rat, strain F344/DuCrj, males, in feed, site: skin, lesion: sebaceous adenoma, dosed 56 weeks, study length 56 weeks): 58.8 mg/kg/day
- TD50 (rat, strain F344/DuCrj, males, in feed, site: skin, lesion: several types, types named in the paper, dosed 56 weeks, study length 56 weeks): 12 mg/kg/day
- TD50 (rat, strain F344/DuCrj, males, in feed, site: skin, lesion: several types, types named in the paper, dosed 61 weeks, study length 61 weeks): 8.76 mg/kg/day
- TD50 (rat, strain F344/DuCrj, males, in feed, site: skin, lesion: squamous-cell carcinoma, dosed 56 weeks, study length 56 weeks): 59.2 mg/kg/day
- TD50 (rat, strain F344/DuCrj, males, in feed, site: skin, lesion: squamous-cell carcinoma, dosed 61 weeks, study length 61 weeks): 13.1 mg/kg/day
- TD50 (rat, strain F344/DuCrj, males, in feed, site: skin, lesion: squamous-cell papilloma, dosed 56 weeks, study length 56 weeks): 59.2 mg/kg/day
- TD50 (rat, strain F344/DuCrj, males, in feed, site: skin, lesion: squamous-cell papilloma, dosed 61 weeks, study length 61 weeks): 73.5 mg/kg/day
- TD50 (rat, strain F344/DuCrj, males, in feed, site: skin, lesion: trichoepithelioma, dosed 56 weeks, study length 56 weeks): 38.9 mg/kg/day

SMILES: C=CCN(CC=C)N=O
- TD50 (hamster, strain Syrian Golden, both sexes, by gavage, site: any site (literature study), lesion: several types, types named in the paper, dosed 53 weeks, study length 59 weeks): 1.54 mg/kg/day
- TD50 (hamster, strain Syrian Golden, both sexes, by gavage, site: larynx, lesion: papillary polyp, dosed 53 weeks, study length 59 weeks): 3.69 mg/kg/day
- TD50 (hamster, strain Syrian Golden, both sexes, by gavage, site: liver, lesion: cholangioma, dosed 53 weeks, study length 59 weeks): 743 mg/kg/day
- TD50 (hamster, strain Syrian Golden, both sexes, by gavage, site: nasal cavity, posterior region, lesion: adenocarcinoma, dosed 53 weeks, study length 59 weeks): 2.86 mg/kg/day
- TD50 (hamster, strain Syrian Golden, both sexes, by gavage, site: pharynx, lesion: papilloma, dosed 53 weeks, study length 59 weeks): 25.3 mg/kg/day
- TD50 (hamster, strain Syrian Golden, both sexes, by gavage, site: trachea, lesion: papillary polyp, dosed 53 weeks, study length 59 weeks): 2.84 mg/kg/day
- TD50 (rat, strain BD IX, females, in drinking water, site: nasal and paranasal cavity, lesion: adenocarcinoma, dosed 104 weeks, study length 104 weeks): 33.6 mg/kg/day
- TD50 (rat, strain BD IX, females, in drinking water, site: nasal and paranasal cavity, lesion: several types, types named in the paper, dosed 104 weeks, study length 104 weeks): 32.1 mg/kg/day
- TD50 (rat, strain BD IX, males, in drinking water, site: nasal and paranasal cavity, lesion: adenocarcinoma, dosed 104 weeks, study length 104 weeks): 46.9 mg/kg/day
- TD50 (rat, strain BD IX, males, in drinking water, site: nasal and paranasal cavity, lesion: several types, types named in the paper, dosed 104 weeks, study length 104 weeks): 36 mg/kg/day
